From patent US20240058321A1, “FARNESYL-TRANSFERASE INHIBITORS AND KRAS INHIBITORS FOR TREATING KRAS MUTANT CANCERS” (SEMMELWEIS EGYETEM, priority 2021, published 2024)
Where two headings read alike, the source gives them in different places.

How the values were obtained:
[1] = tested on: A549; assay: 2D combinational test (SRB growth inhibition, six days); assay type: cell-based, human
Excerpt: (§1) OD values were normalized to control. […] Data shown are results of three independent experiments.

[2] = tested on: SW1990; assay: as above; assay type: cell-based, human; settings: SW1990
Excerpt: as §1

[3] = tested on: SNUC2B; assay: as above; assay type: cell-based, human
Excerpt: as §1

[4] = tested on: HCT116; assay: as above; assay type: cell-based, human
Excerpt: as §1

[5] = tested on: SW480; assay: as above; assay type: cell-based, human
Excerpt: as §1

[6] = tested on: H358; assay: as above
Experimental: H358, SW1573, H1792, MIAPACA2, SW1990, SNUC2B, SW480, A549 and HCT116 were purchased from ATCC, while SW48 KRAS G12C colorectal cell line and H838 KRAS G12D lung cell line was bought from Horizon Discovery Ltd. Most of the cell lines were heterozygous for mutant KRAS, as in human cases used to occur, but we also used cell lines with homozygous mutant KRAS.
Cells were cultured in DMEM (Lonza, Switzerland; with 4500 mg/dm3 glucose, pyruvate and L-glutamine) supplemented with 10% fetal calf serum (EuroClone) and 1% penicillin-streptomycin-amphotericin (Lonza) in tissue culture flasks in a humidified 5% CO2 atmosphere at 37° C.
For in vitro experiments drugs were dissolved in DMSO in 10 mM stock concentration and stored at −80° C.
Cells that reached 70-80% confluency were trypsinized and counted using Luna II Automated Cell Counter. Cells were plated in 5000-10000 cells/well density (depending on the growth rate of the given cell line) on a 24 well plate. Next day the medium was replaced to fresh medium supplemented with the inhibitors. After 6 days, the wells were washed with DPBS (Lonza) and the cells were fixed by 10% trichloroacetic acid and stained with Sulphorodamine-B (SRB) (Sigma) dye for 15 minutes. […] Protein-bound SRB was then dissolved in 10 mM Tris buffer (pH=7,4) and OD was measured at 570 nm using a microplate reader (EL800, BioTec Instruments, Winooski, VT). […]

[7] = tested on: SW1573; assay: as above; settings: SW1573
[8] = tested on: PF906; assay: as above; assay type: cell-based, human
Excerpt: as §1

[9] = tested on: H838 KRAS G12D; assay: as above; assay type: cell-based, human
Excerpt: as §1

[10] = tested on: SW1573; assay: siRNA knockdown experiment (SRB, IC50); assay type: cell-based, human; settings: 6-day-long treatment
Experimental: Cells were plated in 2500 and 7500 cells/well density (for non-targeting siRNA and HRAS siRNA treatment, respectively) on a 48we11 plate supplemented with pre-mixed Lipofectamine RNAIMAX Reagent (Thermo Fisher) and OptiMEM (Thermo Fisher) containing 2.5 pmol/well non-targeting or HRAS siRNA according to the manufacturer's instruction (reverse transfection protocol). […] On the 3rd day of the treatment, cells were supplemented with fresh pre-mixed 2.5 pmol/well siRNA diluted in Lipofectamine RNAiMAX Reagent and Optimem according to the manufacturer's instruction. […] OD values were normalized to control, and IC50 values were calculated from transformed data using GraphPad PRISM 5 software.

[11] = tested on: SW1573 spheroids; assay: 3D spheroid growth test; assay type: cell-based, human
Experimental: Spheroids were generated using polyHEMA coated 96we11 round bottom plates. Briefly, the inner 60 wells of the plate were coated with 60 μl 5 mg/ml polyHEMA dissolved in 96% ethanol. Plates were dried at 60° C. in a plate shaker while shaking, then sterilized with UV. Cells were seeded at 3000 cells/well density at the inner 60 polyHEMA coated wells in 200 μl medium, while the outer wells were filled with DPBS (Lonza) to avoid evaporation. Plates were then centrifugated at 2000 RPM so that cells would be concentrated at the bottom of the well thus enhancing single spheroid formation. Within 24 hours the cells aggregated into spheroids and were treated by adding further 100 μl medium supplemented with the inhibitors. Each concentration group contained three spheroids. Each spheroid was pictured using a ToupCam XW 3MP microscope-camera on the first and sixth day of the treatment. Before imaging, medium was gently suspended so that unattached or dead cells would be removed from the surface of the spheroids. Images then were analysed using ImageJ software with a modified script of [1]. Briefly, the script measures the area of the 2D projections of the spheroids. Results were manually reviewed, then area values were used to calculate radius and volume of spheroids using the formula V=4/3×π×radius^3. Data are shown as results of three independent experiments.

[12] = tested on: cancer patients; settings: cited from earlier work
[13] = tested on: H358 xenografts; assay: In vivo tumor growth of subcutaneous xenografts; parameters: species or system female SCID mice; settings: AMG510 5 mg/kg i.p. and/or tipifarnib 40 mg/kg i.p.
Experimental: (§2) H358 and SW1573 human lung adenocarcinoma cells (5×10^6 and 1×10^6, respectively) were subcutaneously injected in female SCID mice. Cells were injected in 200 μl DMEM:Matrigel mixture (ratio 1:1) based on preliminary experiments. When tumor reached approximately 100 mm^3 (H358 7 days, SW1573 26 days after injection), animals were randomized and treated intraperitoneally daily except for weekends. Drugs were dissolved in 60% DPBS, 34% PEG300, 5% DMSO and 1% Tween80. […] Controls received vehicle. Doses were determined based on previous literature, roughly using half of the used per os doses. The subcutaneous tumors were measured with a caliper and tumor volumes were calculated with the formula […] and expressed in mm^3. H358 experiment was terminated after 18 days and SW1573 after 25 days treatment. Tumors were measured upon harvest, then fixed with 4% PFA for histological analyses.
(§3) Animals were the properties of the Department of Experimental Pharmacology, National Institute of Oncology, H-1122, Budapest, Hungary. All experiments were carried out in accordance with the Guidelines for Animal Experiments and were approved for the Department of Experimental Pharmacology in the National Institute of Oncology, Budapest, Hungary.

[14] = tested on: SW1573 xenografts; assay: In vivo tumor growth of subcutaneous xenografts; parameters: species or system female SCID mice; settings: AMG510 25 mg/kg i.p. and/or tipifarnib 40 mg/kg i.p.
Experimental: as §2, §3

[15] = concentration range of 1-20 μM, data not shown
[16] = 0 nM tipifarnib + 25 nM MRTX1133
[17] = 0 nM tipifarnib + 125 nM MRTX1133
[18] = 0 nM tipifarnib + 625 nM MRTX1133
[19] = (day 1 = 1), animal 1, in g (unit assumed)
[20] = (day 1 = 1), animal 3, in g (unit assumed)
[21] = (day 1 = 1), animal 4, in g (unit assumed)
[22] = (day 1 = 1), animal 6, in g (unit assumed)
[23] = (day 1 = 1), animal 7, in g (unit assumed)
[24] = (day 1 = 1), group mean, in g (unit assumed)

Cn1cnc(Cn2ccc3ccc(CNCc4[nH]c5ccccc5c4[C@H]4NC(=O)c5ccc(O)cc54)cc32)c1 [BI2852]
Relative cell viability (MEAN) ([1]; 0 nM TIPIFARNIB + 20 μM BI2852): 0.9541 | Relative cell viability (MEAN) ([1]; 0 nM TIPIFARNIB + 30 μM BI2852): 0.8484 | Relative cell viability (MEAN) ([1]; 0 nM TIPIFARNIB + 40 μM BI2852): 0.7576 | Relative cell viability (MEAN) ([2]; 0 nM tipifarnib + 10 μM BI2852): 0.9287 | Relative cell viability (MEAN) ([2]; 0 nM tipifarnib + 20 μM BI2852): 0.8554 | Relative cell viability (MEAN) ([2]; 0 nM tipifarnib + 30 μM BI2852): 0.8187 | Relative cell viability (MEAN) ([3]; 0 nM tipifarnib + 10 μM BI2852): 0.8372 | Relative cell viability (MEAN) ([3]; 0 nM tipifarnib + 20 μM BI2852): 0.7477 | Relative cell viability (MEAN) ([3]; 0 nM tipifarnib + 30 μM BI2852): 0.664 | Relative cell viability (MEAN) ([4]; 0 nM TIPIFARNIB + 10 μM BI2852): 0.846 | Relative cell viability (MEAN) ([4]; 0 nM TIPIFARNIB + 20 μM BI2852): 0.7086 | Relative cell viability (MEAN) ([4]; 0 nM TIPIFARNIB + 30 μM BI2852): 0.5907 | Relative cell viability (MEAN) ([5]; 0 nM lonafarnib + 15 μM BI2852): 0.8064 | Relative cell viability (MEAN) ([5]; 0 nM lonafarnib + 20 μM BI2852): 0.6712 | Relative cell viability (MEAN) ([5]; 0 nM lonafarnib + 30 μM BI2852): 0.3888 | Relative cell viability (MEAN) ([5]; 0 nM tipifarnib + 5 μM BI2852): 0.9312 | Relative cell viability (MEAN) ([5]; 0 nM tipifarnib + 10 μM BI2852): 0.7461 | Relative cell viability (MEAN) ([5]; 0 nM tipifarnib + 15 μM BI2852): 0.5371

Cc1nc[nH]c1CN1CCN(C(=O)N[C@@H](CC(C)C)C(=O)O)[C@@H](Cc2ccccc2)C1=O [GGTI-2418]
Effect on tumor cell proliferation (in words) [6, 15]: ineffective | Effect on tumor cell proliferation (in words) [7, 15]: ineffective

C#Cc1c(F)ccc2cc(O)cc(-c3ncc4c(N5CC6CCC(C5)N6)nc(OC[C@@]56CCCN5C[C@H](F)C6)nc4c3F)c12 [MRTX1133]
Relative cell viability (MEAN) ([2]; 0 nM lonafarnib + 2.5 nM MRTX1133): 0.848 | Relative cell viability (MEAN) ([2]; 0 nM lonafarnib + 5 nM MRTX1133): 0.7005 | Relative cell viability (MEAN) ([2]; 0 nM lonafarnib + 10 nM MRTX1133): 0.5543 | Relative cell viability (MEAN) ([2]; 0 nM tipifarnib + 2.5 nM MRTX1133): 0.7355 | Relative cell viability (MEAN) ([2]; 0 nM tipifarnib + 5 nM MRTX1133): 0.5922 | Relative cell viability (MEAN) ([2]; 0 nM tipifarnib + 10 nM MRTX1133): 0.4549 | Relative cell viability (MEAN) ([3]; 0 nM tipifarnib + 50 nM MRTX1133): 0.739 | Relative cell viability (MEAN) ([3]; 0 nM tipifarnib + 100 nM MRTX1133): 0.7023 | Relative cell viability (MEAN) ([3]; 0 nM tipifarnib + 500 nM MRTX1133): 0.6567 | Relative cell viability (MEAN) [8, 16]: 0.716 | Relative cell viability (MEAN) [8, 17]: 0.625 | Relative cell viability (MEAN) [8, 18]: 0.574 | Relative cell viability (MEAN) [9, 16]: 0.8997 | Relative cell viability (MEAN) [9, 17]: 0.7955 | Relative cell viability (MEAN) [9, 18]: 0.6909

sotorasib [AMG510]
IC50 ([10]; Cont (non-targeting) siRNA): 100 nM | IC50 ([10]; HRAS siRNA): 51.7 nM | Drug sensitivity in 3D compared to 2D settings [11]: higher sensitivity | Clinical efficacy in monotherapy ([12]; LUAD patients): good efficacy | Clinical efficacy in monotherapy ([12]; colorectal cancer patients): relatively less effective | Clinical toxicity ([12]; tested clinically): without rate limiting toxicities | Sensitivity to treatment in 2D in vitro experiments [6]: highly sensitive | Weights of the tumors at the end of the experiment [13, 19]: 0.053 | Weights of the tumors at the end of the experiment ([13]; (day 1 = 1), animal 2, in g (unit assumed)): 0.559 | Weights of the tumors at the end of the experiment [13, 20]: 0.038 | Weights of the tumors at the end of the experiment [13, 21]: 0.157 | Weights of the tumors at the end of the experiment [13, 22]: 0.254 | Weights of the tumors at the end of the experiment [13, 23]: 0.029 | Weights of the tumors at the end of the experiment, MEAN [13, 24]: 0.1817 | Inhibition of tumor growth (in words) ([13]; daily except weekends): effectively inhibited tumors | Weights of the tumors at the end of the experiment [14, 19]: 0.1025 | Weights of the tumors at the end of the experiment [14, 20]: 0.7238 | Weights of the tumors at the end of the experiment [14, 21]: 0.2227 | Weights of the tumors at the end of the experiment ([14]; (day 1 = 1), animal 5, in g (unit assumed)): 0.144 | Weights of the tumors at the end of the experiment [14, 22]: 0.5804 | Weights of the tumors at the end of the experiment [14, 23]: 0.4184 | Weights of the tumors at the end of the experiment, MEAN [14, 24]: 0.3653 | Inhibition of tumor growth (in words) ([14]; daily except weekends): effectively inhibited tumors | Sensitivity to treatment in 2D in vitro experiments [7]: resistant
